pEC50: −log10 of the molar value.
Key:
CCKBR = molecular target: T1, CCKBR (Homo sapiens, UniProt P32239); experiment: Calcium response (Fluo-8 No Wash Calcium Assay Kit) in GPCR-overexpressing CHO cells; type: cell-based
T1 construct: expressed in transfected cells; host or cells: CHO cells (CHO-CCKBR)
T1 sequence (P32239 1-447): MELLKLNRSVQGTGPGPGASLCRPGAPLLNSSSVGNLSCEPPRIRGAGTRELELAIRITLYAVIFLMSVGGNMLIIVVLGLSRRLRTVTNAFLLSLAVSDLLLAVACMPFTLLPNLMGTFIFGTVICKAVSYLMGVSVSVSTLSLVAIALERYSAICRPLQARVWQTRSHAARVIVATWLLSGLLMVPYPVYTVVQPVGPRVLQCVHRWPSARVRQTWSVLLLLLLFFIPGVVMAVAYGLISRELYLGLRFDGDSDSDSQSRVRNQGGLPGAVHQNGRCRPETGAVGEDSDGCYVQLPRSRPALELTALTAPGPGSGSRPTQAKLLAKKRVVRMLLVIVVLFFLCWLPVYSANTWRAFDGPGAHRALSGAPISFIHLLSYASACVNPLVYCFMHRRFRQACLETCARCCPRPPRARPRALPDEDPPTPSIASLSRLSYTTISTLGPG
Procedure: In vitro screening system, HT-267 have been tested and measured calcium response by Fluo-8 No Wash Calcium Assay Kit in GPCRs overexpressed CHO cells, including CHO-CCKBR, CHO-CCKAR, CHO-HTR2B cells. These tests and measurements are performed as described in CN 113929737 A by Tortorella, et al., assigned to Regenerative Medicine and Health Innovation Centre Co., Ltd., et al., published on Jan. 14, 2022.

[1] = system: auditory thalamocortical pathway; experiment: HFS-induced thalamocortical LTP in CCK-KO mice with infusion into ACx (fEPSP slope); type: in vivo; settings: HT-267 5 μM, 0.5 μl into ACx, n=6, p<0.0001, FIG. 5C
Description: The electrical stimulation is generated by an ISO-Flex isolator (A.M.P.I., Israel), which is controlled by a multifunction processor (RX6, TDT). The electrical current pulses for baseline test are 0.5 ms, 50-150 μA and presented every 10 s. The theta burst stimulation (TBS) contains four trails of 10 bursts at 5 Hz with the interval of 10 s between the trails, and each burst consists of 5 pulses at 100 Hz.
[…], two customized microelectrode arrays with four tungsten electrodes each, impedance: 0.5-1 MS2 (recording), and 200-500 kΩ (ES) (FHC, U.S.), are used for the auditory cortical neuronal activity recording and medial geniculate body ventral division (MGv) electrical stimulation and monitoring, respectively. […] 70 dB, 100 ms, noise bursts are presented every 10 s during the insertion of the electrode arrays, and neuronal activities are monitored as the electrode arrays are lowered until robust noise responses are achieved on both arrays. The final stimulating and recording positions are determined by maximizing the cortical field excitatory postsynaptic potential (fEPSP) amplitude triggered by the electrical stimulation in MGv.
The fEPSPs, which are elicited by 0.5 ms electrical current pulses, are amplified (×1000) and filtered (1 Hz-5 kHz), recorded with a 25 kHz sampling rate, and stored in a PC by OpenEx software (TDT). Before the recording, an input-output function is measured. […]

[2] = system: noise-induced tinnitus mice; experiment: Tinnitus mouse model, gap pre-pulse inhibition of the acoustic startle reflex (GPIAS) with sound therapy; type: in vivo; settings: 0.2 mg/kg intraperitoneal, one week (4 treatment days), combined with sound exposure; 12.6k, 16k, 20.1k, 28.7k Hz; FIGS. 6F-6I
Procedure: HT-267 is tested in the tinnitus mouse model. […] 7-9 weeks after tinnitus induction, more than 50% of mice developed tinnitus.
The inventors use the standard approach for assessing tinnitus in a rodent model, namely gap pre-pulse inhibition of the acoustic startle reflex (GPIAS) (FIGS. 2A-B). […] (Upper) Background sound and startle speakers are placed 10 and 13 cm respectively, from the point of microphone calibration. Signals from three force sensors placed under the testing tube in a triangular formation are averaged in a custom-made circuit and transmitted to TDT digital signal processor (DSP) for further analysis. (Lower) Timeline of a single GPIAS testing session. A GPIAS testing session consists of 3 blocks, lasting 36 minutes in total. The first block is the acclimation phase, lasting five minutes, where white noise is played from the “Cue” speaker for 5 minutes. Block two is the startle acclimation phase. To prevent outlier trials at the beginning of the testing session, 10 startle-only trials without any background sound are delivered to the animal. After block two, block three takes place, lasting 30 minutes. The 30 minute-long GPIAS session consisting of 300 individual trials (Five different background (BG) frequencies tested, for both GAP and NO_GAP conditions with 30 repeats for each BG frequency×GAP/NO_GAP condition pair). Each square represents one minute in the timeline. […]

[3] = system: auditory thalamocortical pathway; experiment: Thalamocortical LTP induction by CCK injection in the auditory cortex with low-frequency stimulation of MGv (fEPSP slope); type: in vivo; settings: CCK 1 μM, 1 μl into ACx, n=8, p<0.001, FIG. 3E
[4] = elimination half-life (t1/2) in plasma

| half-life (in vivo; [4]) [min] | pEC50 (CCKBR; CHO-CCKBR cells) | receptor specificity of calcium response (CCKBR; CHO-CCKBR vs CHO-CCKAR and CHO-HTR2B cells, FIG. 1) | Tmax (in vivo) [min] | blood-brain barrier passage (in vivo) | uptake rate of brain (in vivo) | half-life (in vivo; t1/2 in brain) [min] | Compound | rescue of HFS-induced thalamocortical LTP (normalized fEPSP slope) [1] | change of GPIAS ratio pre- vs post-treatment [2] | normalized fEPSP slope after injection and LFS [3] |
| --- | --- | --- | --- | --- | --- | --- | --- | --- | --- | --- |
| ~13 | – | – | – | – | – | – | CSCC[C@H](NC(=O)C(N)Cc1c[nH]c2ccccc12)C(=O)NC(CC(=O)O)C(=O)N[C@@H](Cc1ccccc1)C(N)=O (some centres unmarked) [CCK-4, Cholecystokinin-4, reference compound] | – | – | – |
| ~105 | ~10.30 | specifically activates CCKBR | ~1.98 | passes BBB easily | about 21.89% | ~522 | CSCCC(NC(=O)[C@H](N)Cc1c[nH]c2ccccc12)C(=O)N[C@@H](CC(=O)O)C(=O)N[C@@H](Cc1cccc(Br)c1)C(N)=O (some centres unmarked) [HT-267] | abolished LTP could be rescued | significantly reduces | – |
| – | – | – | – | – | – | – | cholecystokinin [CCK] | – | – | lead to an enhancement in fEPSP |
